Legend:
[1] = tested on: infiltrating cells in brain and spinal cord of mice with EAE; assay: TUNEL assay on brain and spinal cord of EAE mice; assay type: in vivo, mouse; conditions: 200 μg i.v. on day 15 after immunization
Experimental: Mice with EAE were treated intravenously with 200 μg of azPC, 200 μg of POPS, or vehicle (0.05% Tween-20 in PBS) on day 15 after immunization with CFA and PLP139-151 peptide. Mice were treated with lipids for 12, 24, or 48 hours and then sacrificed and perfused with 4% paraformaldehyde. Brains and spinal cords were embedded in paraffin and sectioned. TUNEL-positive cells were detected by using the In Situ Cell Death Kit, AP (Roche) according to the manufacturer's instructions.

[2] = tested on: CD3+ T cells (gated on CD4+ T cells); assay: T-cell apoptosis, Annexin V and 7AAD staining; assay type: cell-based, mouse; conditions: 30 μg/ml lipid, anti-CD3 and anti-CD28, 48 hours
Experimental: FIG. 5. […] (C) TUNEL staining of brain and spinal-cord tissue from mice immunized with PLP139-151 peptide (to induce EAE) and treated for 12 h with azPC, POPS, or vehicle on day 15 after immunization. […] (D) Quantification of TUNEL-positive infiltrating cells in brain and spinal cord shown in panel (C). Cells were stained according to standard protocols, run on a FACScan flow cytometer (BD Biosciences), and analysed with CellQuest software (BD Immunocytometry Systems). The antibody conjugate used was FITC anti-CD4, clone GK1.5 (BD Pharmingen). 7AAD staining was performed by using the Annexin V-PE Apoptosis Detection Kit I (BD Pharmingen). Cells were stained according to standard protocols, run on a FACScan flow cytometer (BD Biosciences), and analysed with CellQuest software (BD Immunocytometry Systems) or with FlowJo software version 6.3.2 (Tree Star, Inc.).

B cells = assay: Proliferation of anti-IgM F(ab')2/anti-CD40-stimulated purified B cells; assay type: cell-based, mouse; conditions: 30 μg/ml lipid, anti-IgM F(ab')2 and anti-CD40, 48 hours
Experimental: Anti-IgM F(ab′)2 fragment/anti-CD40-stimulated purified B cells: We harvested spleens from naive C57BL/6 mice and used a B-cell isolation kit (Miltenyi Biotec) to negatively isolate B cells. We then stimulated 5×10^5 cells/ml of B cells with 5 μg/ml of each of soluble anti-IgM F(ab′)2 fragment (Jackson ImmunoResearch) antibody and anti-CD40 antibody (eBioscience) in the presence of 30 μg/ml of POPS, PGPC, azPC ester, or azPC.

[3] = tested on: splenocytes from PLP139-151-immunized SJL mice; assay: PLP139-151-induced cytokine production by splenocytes of PLP139-151-immunized mice; assay type: cell-based, mouse; conditions: 30 μg/ml lipid, 48 hours
Experimental: PLP-stimulated cells from PLP139-151-immunized mice administered PGPC prophylactically: SJL/J mice were co-injected with PGPC and PLP139-151 in CFA and sacrificed 48 days later. Lymph node cells and splenocytes were then harvested and re-stimulated in vitro (2.5×10^6 cells/ml) with 10 μg/ml of PLP139-151 or with media alone. PLP-stimulated cells from untreated PLP139-151-immunized mice: SJL/J mice were immunized with PLP139-151 in CFA and sacrificed 10 days later. Splenocytes were then harvested and re-stimulated in vitro (at 5×10^5 cells/ml) with 10 μg/ml of PLP139-151 in the presence of 30 μg/ml of POPS, PGPC, azPC ester, or azPC. Cytokine production by cells from the lymph nodes and spleens of PGPC co-immunized mice was measured after 66 hours of stimulation by using the BD OptEIA™ Mouse IFN-γ ELISA kit (BD Biosciences). Cytokine assays for the anti-CD3/anti-CD28 antibody-stimulated T cells and PLP139-151-stimulated splenocytes were performed on culture supernatants after 48 hours of stimulation using the BD OptEIA™ Mouse IL-6, IFN-γ, and TNF alpha ELISA kits (BD Biosciences) and the Mouse IL-17 DuoSet ELISA Development kit (R&D Systems).

CD3+ T cells = assay: Proliferation of anti-CD3/anti-CD28-stimulated purified T cells; assay type: cell-based, mouse; conditions: anti-CD3 or anti-CD3 and anti-CD28, 30 μg/ml lipid, 48 hours
Experimental: Splenocytes were harvested from mice transgenic for the MBPAc1-11-specific T-cell receptor and stimulated with 2 μg/ml of MBPAc1-11 in the presence of 30 μg/ml of lipid. Lymph nodes and spleens were also harvested from naive C57BL/6 mice, and CD3^+ T-cell enrichment columns (R&D systems) were used to isolate CD3^+ T cells. […] Cytokine assays were performed on culture supernatants after 24 (IL-12p40) or 48 hours (IFN-γ, IL-6, and TNF) of culture by using the BD OptEIA™ Mouse ELISA kits (BD Biosciences). Cd1d^−/− T cells: We harvested splenocytes from Cd1d^−/− mice and their wild-type littermates and used CD3^+ T-cell enrichment columns (R&D systems) to isolate T cells. […] Anti-CD3/anti-CD28-stimulated purified T cells: We harvested lymph nodes and spleens from naive C57BL/6 mice and used CD3^+ T-cell enrichment columns (R&D systems) to isolate CD3^+ T cells.

[4] = tested on: EAE in PLP139-151-immunized SJL/J mice; assay: EAE, lipid administered prophylactically (co-immunization with PLP139-151); assay type: in vivo, mouse; conditions: 6 μg/injection; s.c. with PLP139-151 on day 0, i.p. on days 4 and 7
Experimental: Animal experiments were approved by, and performed in compliance with, the National Institute of Health guidelines of the Institutional Animal Care and Use Committee at Stanford University. For induction of EAE, 8- to 12-week-old female SJL/J mice (Jackson Laboratory) were immunized subcutaneously with 100 μg of PLP139-151 emulsified in CFA (Difco Laboratories). Three injections of PGPC (6 μg/mouse/injection) or vehicle (0.05% Tween-20 in PBS) were delivered on days 0, 4, and 7 after immunization with PLP139-151. On day 0, the lipid or vehicle was emulsified together with PLP139-151 in CFA and administered by subcutaneous injection. At subsequent time points, lipid or vehicle was injected intraperitoneally. EAE was assessed as previously described. To induce EAE in SJL/J mice (Jackson Mice), we immunized 8- to 12-week-old female animals subcutaneously with 100 μg of PLP139-151 emulsified in CFA (Difco Laboratories). Prophylactic administration of lipid: Three injections of PGPC or sphingomyelin (6 μg/mouse/injection) or vehicle (0.05% Tween-20 in PBS) were delivered on days 0, 4, and 7 after immunization with PLP139-151. […] Clinical disease was monitored daily using the following scoring system: 0, no disease; 1, limp tail; 2, hind limb weakness; 3, hind limb paralysis; 4, hind limb and forelimb paralysis; 5, death. […]

| SMILES | number of TUNEL-positive cells with lymphocyte morphology in brain and spinal cord [1] | increase in T-cell apoptosis [2] [fold] | proliferation of activated B cells (B cells) | PLP139-151-induced cytokine production (IL-17, IL-6, IFN-γ, TNF) [3] | T-cell proliferation, wild-type and Cd1d−/− T cells (CD3+ T cells) | EAE severity (clinical score) [4] |
| --- | --- | --- | --- | --- | --- | --- |
| CCCCCCCCCCCCCCCC(=O)OC[C@H](COP(=O)([O-])OCC[N+](C)(C)C)OC(=O)CCCCCCCC(=O)O [azPC, 1-Palmitoyl-2-Azelaoyl-sn-Glycero-3-Phosphocholine] | increased the number of TUNEL-positive cells | > 4 | modestly suppressed proliferation | suppress | suppress T-cell proliferation independently of CD1d | – |
| CCCCCCCCCCCCCCCC(=O)OC[C@H](COP(=O)([O-])OCC[N+](C)(C)C)OC(=O)CCCC(=O)O [PGPC, 1-Palmitoyl-2-Glutaroyl-sn-Glycero-3-Phosphocholine] | – | – | – | suppress | suppress T-cell proliferation independently of CD1d | reduced the severity of EAE |
| CCCCCCCC/C=C\CCCCCCCC(=O)O[C@H](COC(=O)CCCCCCCCCCCCCCC)COP(=O)(O)OC[C@H](N)C(=O)O [POPS, 1-Palmitoyl-2-Oleoyl-sn-Glycero-3-[Phospho-L-Serine]] | increased the number of TUNEL-positive cells | > 5 | modestly suppressed proliferation | suppress | suppress T-cell proliferation independently of CD1d | – |

— patent US20130281409A1, “Myelin Sheath Fatty Acids that Resolve Neuroinflammation” (priority 2012, published 2013)
